Data reported in patent US20200024278A1, “COMPOSITION COMPRISING ANTIBIOTIC COMPOUND AND AN HETEROCYCLIC COMPOUND AND THEIR USE IN PREVENTING OR TREATING BACTERIAL INFECTIONS” (MUTABILIS, priority 2016, published 2020).
Like-named read-outs stand apart in the source and are kept apart here.

Key:
Assay in all cases: MIC, broth microdilution (CLSI), substance alone or ATB combined with compound at 4 or 8 μg/mL
KPN UFR42 = type: cell-based, K. pneumoniae; settings: KPN UFR42
How it was run: (§1)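 Each strain received 5·10^5 CFU/mL of log-phase cells in ca-MHB over DMSO-spotted compound or compound-antibiotic combinations. After 16-20 h at 35° C, growth was scored visually.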

KPN 6299 = type: cell-based, K. pneumoniae
How it was run: as §1

KPN BAA-1898 = type: cell-based, K. pneumoniae; settings: KPN BAA-1898
How it was run: as §1

PAE 105250 = type: cell-based, P. aeruginosa; settings: PAE 105250
How it was run: as §1

PAE UFR90 = type: cell-based, P. aeruginosa; settings: PAE UFR90; for MIC: Pseudomonas aeruginosa
How it was run: as §1

PAE UFR48 = type: cell-based, P. aeruginosa; settings: PAE UFR48
How it was run: as §1

[1] = Klebsiella pneumoniae, antibiotic alone, read-out: MIC ATB alone

`NCC[C@H](O)C(=O)N[C@@H]1C[C@H](N)[C@@H](O[C@H]2O[C@H](CN)[C@@H](O)[C@H](O)[C@H]2O)[C@H](O)[C@H]1O[C@H]1O[C@H](CO)[C@@H](O)[C@H](N)[C@H]1O` [AN, Amikacin, reference compound] was tested, and the “MIC ATB combined with Example 1 @8 μg/ml” value (KPN UFR42; with Example 1 @8 μg/ml) was greater than 32 µg/mL, the “MIC ATB combined with Example 1 @8 μg/ml” value (KPN UFR42; with Example 1 at 8 μg/ml) was greater than 32 µg/mL and the “MIC ATB combined with Example 7 @8 μgml” value (KPN UFR42; with Example 7 at 8 μg/ml) was greater than 32 µg/mL. For the same compound, the “MIC ATB combined with Example 9 @4 μg/ml” value (KPN UFR42; with Example 9 @4 μg/ml) was greater than 32 µg/mL, the “MIC ATB combined with Example 9 @4 μg/ml” value (KPN UFR42; with Example 9 at 4 μg/ml) was greater than 32 µg/mL and the “MIC ATB combined with Example 11 @8 μg/ml” value (KPN UFR42; with Example 11 at 8 μg/ml) was 0.25 µg/mL. For the same compound, the “MIC ATB combined with Example 12 @8 μg/ml” value (KPN UFR42; with Example 12 at 8 μg/ml) was less than 0.031 µg/mL, the “MIC ATB combined with Example 13 @8 μg/ml” value (KPN UFR42; with Example 13 at 8 μg/ml) was greater than 32 µg/mL and the “MIC ATB combined with Example 14 @8 μg/ml” value (KPN UFR42; with Example 14 at 8 μg/ml) was less than 0.031 µg/mL. For the same compound, the “MIC ATB combined with Example 15 @4 μgml” value (KPN UFR42; with Example 15 at 4 μg/ml) was greater than 32 µg/mL, the “MIC ATB combined with Example 16 @4 μg/ml” value (KPN UFR42; with Example 16 at 4 μg/ml) was less than 0.031 µg/mL and the MIC (KPN UFR42; [1]) was greater than 32 µg/mL. For the same compound, the MIC (KPN 6299; [1]) was 16 µg/mL, the “MIC ATB combined with Example 1 @8 μg/ml” value (KPN 6299; with Example 1 @8 μg/ml) was 16 µg/mL and the “MIC ATB combined with Example 1 @8 μg/ml” value (KPN 6299; with Example 1 at 8 μg/ml) was 16 µg/mL. For the same compound, the “MIC ATB combined with Example 7 @8 μgml” value (KPN 6299; with Example 7 at 8 μg/ml) was 2 µg/mL, the “MIC ATB combined with Example 9 @4 μg/ml” value (KPN 6299; with Example 9 @4 μg/ml) was less than 0.031 µg/mL and the “MIC ATB combined with Example 9 @4 μg/ml” value (KPN 6299; with Example 9 at 4 μg/ml) was less than 0.031 µg/mL. The “MIC ATB combined with Example 11 @8 μg/ml” value (KPN 6299; with Example 11 at 8 μg/ml) was less than 0.031 µg/mL, the “MIC ATB combined with Example 12 @8 μg/ml” value (KPN 6299; with Example 12 at 8 μg/ml) was less than 0.031 µg/mL and the “MIC ATB combined with Example 13 @8 μg/ml” value (KPN 6299; with Example 13 at 8 μg/ml) was 4 µg/mL. For the same compound, the “MIC ATB combined with Example 14 @8 μg/ml” value (KPN 6299; with Example 14 at 8 μg/ml) was less than 0.031 µg/mL, the “MIC ATB combined with Example 15 @4 μgml” value (KPN 6299; with Example 15 at 4 μg/ml) was “<=0.031 μg/mL” and the “MIC ATB combined with Example 16 @4 μg/ml” value (KPN 6299; with Example 16 at 4 μg/ml) was less than 0.031 µg/mL. For the same compound, the “MIC ATB combined with Example 1 @8 μg/ml” value (KPN BAA-1898; with Example 1 @8 μg/ml) was 0.25 µg/mL, the “MIC ATB combined with Example 1 @8 μg/ml” value (KPN BAA-1898; with Example 1 at 8 μg/ml) was 0.25 µg/mL and the “MIC ATB combined with Example 7 @8 μgml” value (KPN BAA-1898; with Example 7 at 8 μg/ml) was 0.125 µg/mL. For the same compound, the “MIC ATB combined with Example 9 @4 μg/ml” value (KPN BAA-1898; with Example 9 @4 μg/ml) was less than 0.031 µg/mL, the “MIC ATB combined with Example 9 @4 μg/ml” value (KPN BAA-1898; with Example 9 at 4 μg/ml) was less than 0.031 µg/mL and the “MIC ATB combined with Example 11 @8 μg/ml” value (KPN BAA-1898; with Example 11 at 8 μg/ml) was less than 0.031 µg/mL. For the same compound, the “MIC ATB combined with Example 12 @8 μg/ml” value (KPN BAA-1898; with Example 12 at 8 μg/ml) was less than 0.031 µg/mL, the “MIC ATB combined with Example 13 @8 μg/ml” value (KPN BAA-1898; with Example 13 at 8 μg/ml) was 0.25 µg/mL and the “MIC ATB combined with Example 14 @8 μg/ml” value (KPN BAA-1898; with Example 14 at 8 μg/ml) was less than 0.031 µg/mL. The “MIC ATB combined with Example 15 @4 μgml” value (KPN BAA-1898; with Example 15 at 4 μg/ml) was “<=0.031 μg/mL”, the “MIC ATB combined with Example 16 @4 μg/ml” value (KPN BAA-1898; with Example 16 at 4 μg/ml) was less than 0.031 µg/mL and the MIC (KPN BAA-1898; Klebsiella pneumoniae, BAA1898, antibiotic alone, read-out: MIC ATB alone) was 1 µg/mL. The “MIC ATB combined with Example 1 @8 μg/ml” value (PAE 105250; with Example 1 @8 μg/ml) was less than 0.031 µg/mL, the “MIC ATB combined with Example 1 @8 μg/ml” value (PAE 105250; with Example 1 at 8 μg/ml) was less than 0.031 µg/mL and the “MIC ATB combined with Example 7 @8 μgml” value (PAE 105250; with Example 7 at 8 μg/ml) was 2 µg/mL. For the same compound, the “MIC ATB combined with Example 9 @4 μg/ml” value (PAE 105250; with Example 9 @4 μg/ml) was 2 µg/mL, the “MIC ATB combined with Example 9 @4 μg/ml” value (PAE 105250; with Example 9 at 4 μg/ml) was 2 µg/mL and the “MIC ATB combined with Example 11 @8 μg/ml” value (PAE 105250; with Example 11 at 8 μg/ml) was 2 µg/mL. The “MIC ATB combined with Example 12 @8 μg/ml” value (PAE 105250; with Example 12 at 8 μg/ml) was 2 µg/mL, the “MIC ATB combined with Example 13 @8 μg/ml” value (PAE 105250; with Example 13 at 8 μg/ml) was 2 µg/mL and the “MIC ATB combined with Example 14 @8 μg/ml” value (PAE 105250; with Example 14 at 8 μg/ml) was 1 µg/mL. The “MIC ATB combined with Example 15 @4 μgml” value (PAE 105250; with Example 15 at 4 μg/ml) was 2 µg/mL, the “MIC ATB combined with Example 16 @4 μg/ml” value (PAE 105250; with Example 16 at 4 μg/ml) was 1 µg/mL and the MIC (PAE 105250; Pseudomonas aeruginosa, antibiotic alone, read-out: MIC ATB alone) was 2 µg/mL. For the same compound, the “MIC ATB combined with Example 1 @8 μg/ml” value (PAE UFR90; with Example 1 @8 μg/ml) was less than 0.031 µg/mL, the “MIC ATB combined with Example 1 @8 μg/ml” value (PAE UFR90; with Example 1 at 8 μg/ml) was less than 0.031 µg/mL and the “MIC ATB combined with Example 7 @8 μgml” value (PAE UFR90; with Example 7 at 8 μg/ml) was 2 µg/mL. For the same compound, the “MIC ATB combined with Example 9 @4 μg/ml” value (PAE UFR90; with Example 9 @4 μg/ml) was 2 µg/mL, the “MIC ATB combined with Example 9 @4 μg/ml” value (PAE UFR90; with Example 9 at 4 μg/ml) was 2 µg/mL and the “MIC ATB combined with Example 11 @8 μg/ml” value (PAE UFR90; with Example 11 at 8 μg/ml) was 2 µg/mL. The “MIC ATB combined with Example 12 @8 μg/ml” value (PAE UFR90; with Example 12 at 8 μg/ml) was 2 µg/mL, the “MIC ATB combined with Example 13 @8 μg/ml” value (PAE UFR90; with Example 13 at 8 μg/ml) was 2 µg/mL and the “MIC ATB combined with Example 14 @8 μg/ml” value (PAE UFR90; with Example 14 at 8 μg/ml) was 2 µg/mL. For the same compound, the “MIC ATB combined with Example 15 @4 μgml” value (PAE UFR90; with Example 15 at 4 μg/ml) was 2 µg/mL, the “MIC ATB combined with Example 16 @4 μg/ml” value (PAE UFR90; with Example 16 at 4 μg/ml) was 2 µg/mL and the MIC (PAE UFR90; antibiotic alone, read-out: MIC ATB alone) was 2 µg/mL. For the same compound, the MIC (PAE UFR90; substance alone, read-out: MIC) was 2 µg/mL, the “MIC ATB combined with Example 1 @8 μg/ml” value (PAE UFR48; with Example 1 @8 μg/ml) was less than 0.031 µg/mL and the “MIC ATB combined with Example 1 @8 μg/ml” value (PAE UFR48; with Example 1 at 8 μg/ml) was less than 0.031 µg/mL. For the same compound, the “MIC ATB combined with Example 7 @8 μgml” value (PAE UFR48; with Example 7 at 8 μg/ml) was 32 µg/mL, the “MIC ATB combined with Example 9 @4 μg/ml” value (PAE UFR48; with Example 9 @4 μg/ml) was 32 µg/mL and the “MIC ATB combined with Example 9 @4 μg/ml” value (PAE UFR48; with Example 9 at 4 μg/ml) was 32 µg/mL. The “MIC ATB combined with Example 11 @8 μg/ml” value (PAE UFR48; with Example 11 at 8 μg/ml) was greater than 32 µg/mL.
